Reference: patent US20120178695A1, “METHODS OF TREATING NEUROPATHIC PAIN” (priority 2009, published 2012)
Peptide text beside a SMILES is read from it.

Columns and labels:
[1] = test system: rat formalin model of tonic pain; test: rat formalin model of tonic pain; assay type: in vivo; details: for antinociceptive efficacy (percentage analgesia, late phase response): subcutaneous before formalin, second phase 10-40 min after formalin
Procedure: FIG. 1 depicts the antinociceptive actions of GLYX-13 and gabapentin in the rat formalin model of tonic pain. Percentage analgesia is the percentage reduction (on the basis of the area under the curve for vehicle+formalin) in flinches in the late phase response (10-40 min) after intraplantar formalin injection ([…] of 5% formalin) compared with control values arbitrarily set at 100%. Drugs were administered subcutaneously, 15 min before formalin. N=8-10 per group. Mean±SEM.
Antinociceptive actions of GLYX-13 were conducted in a rat formalin assay. Male Sprague-Dawley rats (125-170 g) were manually restrained for a subcutaneous injection of 1.5% formalin ([…] with a 26 ga needle) into the lateral footpad on the plantar surface of the left hind paw. After formalin injections, rats were placed in individual clear plastic cylinders of 30 cm diameter. Drug effects on the second phase of the pain response were monitored with observations conducted over the period between 10 and 40 min after formalin injection. Each group was composed of 10 animals. Vehicle, GLYX-13, or gabapentin was administered subcutaneously at the nape of the neck 10 min before the formalin injection. The time spent licking or elevating the injected limb was quantitated over this […] observation period.

[2] = test system: chronic constriction nerve injury model of neuropathic pain; test: chronic constriction nerve injury model of neuropathic pain (Example 1); assay type: in vivo, rat; details: 5 mg/kg intravenously; 15 and 60 minutes after dosing
Procedure: Next, GLYX-13 was evaluated in the chronic constriction nerve injury model of neuropathic pain; 5 mg/kg GLYX-13. Male Sprague-Dawley rats (200-225 g) were anesthetized with sodium pentobarbitone (6 mg/kg, intraperitoneally) and supplemented as necessary with isoflurane (1-3% in oxygen). Under asceptic conditions, the right sciatic nerve was exposed by blunt dissection at the mid thigh level and 1 cm freed of adhering connective tissue. Four chromic catgut (4.0) ligatures were tied to lightly constrict the nerve at 1 mm intervals. The overlying muscle and skin were sutured and, upon recovery from anesthesia, the rats returned to cages of soft padded bedding and to cages with sawdust bedding after 24 h. At days 5, 7, 9, and 11 post recovery, mechanical […] was assessed with Von Frey filaments (calibration numbers, 3.61-6.10) applied to the plantar surface of the hind paw from below. The filaments were evaluated in ascending order with the threshold for both the ipsilateral and contralateral paws being evaluated. The withdrawal threshold was defined as the lowest force of two or more consecutive Von Frey filaments to elicit a withdrawal reflex. […]
The antinociceptive actions of vehicle or GLYX-13 (5 mg/kg) were evaluated at 15 and 60 minutes after dosing. […]

[3] = ataxia on rotor-rod apparatus; assay type: in vivo; details: 30 min after 5, 50, or 500 mg/kg intravenous administration
[4] = blood-brain barrier crossing
[5] = test system: acetic-acid induced writhing model in mice; test: acetic-acid induced writhing model in mice; assay type: in vivo, mouse; details: male mice; 1, 5, and 10 mg/kg i.v., 5 min before i.p. 0.5% acetic acid
Procedure: GLYX-13 was tested for antinociceptive activity in an acetic-acid induced writhing model in mice. Groups of 10 male mice were dosed i.v. with either saline or GLYX-13 at 1, 5, or 10 mg/kg. Five minutes later, each mouse was injected i.p. with a solution of 0.5% acetic acid in 0.9% saline and observed for writhing behavior for five minutes. The total number of writhes for each mouse was recorded and the mean number of writhes was compared between the control and GLYX-13 treated groups.

[6] = test system: radiant heat tail flick response; test: radiant heat tail flick study in rats; assay type: in vivo, rat; details: male rats; 1, 5, and 10 mg/kg i.v., five minutes after administration
Procedure: The ability of GLYX-13 to block the radiant heat tail flick response was determined in male rats. Groups of 10 male rats were administered either saline or GLYX-13 at 1, 5, or 10 mg/kg via i.v. injection, and five minutes following administration, the tail of each rat was exposed to a radiant heat stimulus. The time to elicit a characteristic tail flick was determined for each rat and the mean response time was determined for each group.

[7] = test system: Randall-Selitto paw pressure model; test: Randall-Selitto paw pressure model in rats; assay type: in vivo, rat
Procedure: The purpose of this study was to assess the potential effect of GLYX-13 upon the pain threshold in rats using the Randall-Selitto paw pressure model. Groups of 10 male rats (20 for saline vehicle control) were injected with a 20% suspension of yeast in the right hind paw and two hours later, each rat was intravenously administered either saline or GLYX-13 at 1, 5, or 10 mg/kg. The response to mechanical pain stimulus was determined for both the inflamed and non-inflamed paw using an analgesia meter. The amount of force required to elicit paw withdrawal was measured for each rat.

[8] = test system: rat model of peripheral neuropathy; test: rat model of peripheral neuropathy, mechanical allodynia (Example 5); assay type: in vivo; details: for group mean withdrawal threshold, nerve-injured paw: approximately 60 min post-dose
Procedure: FIG. 2 depicts the result of groups of eight male rats subjected to chronic constriction injury to the right hind limb. Following development of peripheral neuropathy, rats were administered GLYX-13, i.v. at 5, 10 or 20 mg/kg on days 12 and 13 post-operative (PO). Rats were tested for mechanical allodynia at 15 and 60 minutes post-dose on day 13 PO. The data represent mechanical allodynia readings at 15 minutes post-dose.
The ability of GLYX-13 to attenuate neuropathic pain was assessed in a rat model of peripheral neuropathy. In this study, four groups of eight male rats were subjected to surgically-induced peripheral neuropathy. Peripheral neuropathy was induced in the right hind limb of male rats by loose ligation of the right sciatic nerve according to the method of Bennett and Xie (Bennett and Xie, 1988). After 8-10 days, a peripheral neuropathy had developed in the right hind limbs as determined by sensitivity to both mechanical allodynia and thermal hyperalgesia. This pilot study consisted of four groups of eight male rats. Days 12-13 post surgery, vehicle (0.9% saline) or GLYX-13 at 5, 10, and 20 mg/kg were administered, and rats were tested for sensitivity to both the thermal stimulus and mechanical allodynia. […] The results for GLYX-13 15 minutes post dose in this rodent neuropathy model are shown FIG. 2.

[9] = test system: rodent peripheral neuropathy model; test: second peripheral neuropathy study, mechanical allodynia (Example 6); assay type: in vivo, rat; details: 5 mg/kg i.v.
Procedure: FIG. 3 depicts the results of groups of 12 male rats subjected to chronic constriction injury to the right hind limb. Following development of peripheral neuropathy, rats were 5 administered GLYX-13, i.v. at 5, 10 or 20 mg/kg on days 12 and 13 post-operative (PO). Rats were tested for mechanical allodynia at 15 and 60 minutes post-dose on day 13 PO. The data represent mechanical allodynia readings at 60 minutes post-dose.
A second peripheral neuropathy study was performed with GLYX-13 in male Sprague- Dawley rats. A peripheral mononeuropathy was induced in the right hind limb and rats were tested for development of mechanical allodynia. Rats that had positively developed neuropathy were administered vehicle (0.9% saline) or GLYX-13 i.v. at doses of 5, 10, or 20 mg/kg on days 12 and 13 PO. Testing for mechanical allodynia was performed at 15 and 60 minutes post-dose. […] In this rodent peripheral neuropathy model, i.v. administration of5 mg/kg GLYX-13 to male rats caused a significant reduction in the sensitivity of the nerve injured hind paw to mechanical allodynia at both 15 and 60 minutes post dose. There was no evidence of any systemic or contralateral effects in this study.

[10] = test system: intraplantar formalin pain, late phase; test: formalin test 8 days after a single dose (Example 7); assay type: in vivo, rat; details: 1 dose 3 mg/kg i.v. 8 days before intraplantar formalin (1.5%)
Procedure: FIG. 4 depicts mean±SEM percent analgesia in the late phase (30-50 min) in 3 month old Sprague-Dawley rats pretreated with GLYX-13 (3 mg/kg i.v.), ketamine (10 mg/kg i.v.) or saline vehicle injection (1 mg/ml i.v. tail vein) in freely behaving rats 8 days before left rear paw intraplantar injections (50 μl) of formalin (1.5%). Analgesia is % reduction in licking time, number of flinches, or total pain score (favoring+2×foot up+3×licking time). […] N=10-11 per group. * P<0.05 Fisher PLSD post hoc drug vs. all other groups.
Freely behaving 3 month old Sprague Dawley rats were pretreated with GLYX -13 (3 mg/kg i.v.), ketamine (10 mg/kg i.v.) or saline vehicle injection (1 mg/ml i.v. tail vein) 8 days before left rear paw intraplantar injections (50 μl) of formalin (1.5%).

For `C[C@@H](O)[C@H](N)C(=O)N1CCC[C@H]1C(=O)N1CCC[C@H]1C(=O)N[C@H](C(N)=O)[C@@H](C)O` [GLYX-13, L-threonyl-L-prolyl-L-prolyl-L-threonine amide] (H-TPPT-NH2), which ataxia ([1]; rat, in vivo, sc) is on record?
Its ataxia is “not ataxic at any of the doses examined”.

And the “antinociceptive efficacy (percentage analgesia, late phase response)” value [1]?
Its value is “dose-dependent efficacy”.

What about the “antinociceptive action (mechanical allodynia)” value [2] of the same molecule?
The value was “antinociceptive at both time points”.

What about the ataxia [2] of the same molecule?
The ataxia was “no evidence of ataxia”.

And the “ataxia, rotor-rod apparatus” value [3]?
The value was “not found to induce ataxia”.

And the “crossing of the blood-brain barrier” value [4]?
Its value is “readily crosses the blood-brain barrier in an active form”.

What about the “acetic acid induced writhing behavior” value [5] of the same molecule?
Its value is “did not block acetic acid induced writhing behavior”.

And the “response time to a radiant heat stimulus (tail flick)” value [6]?
The value was “did not result in a change in the response time”.

And the “pain threshold (force to elicit paw withdrawal)” value ([7]; male rats, yeast-inflamed paw, 1, 5, or 10 mg/kg i.v.)?
Its value is “no significant effect on the pain threshold”.

What about the “pain threshold (force to elicit paw withdrawal)” value ([7]; rats dosed with 5 and 10 mg/kg i.v.) of the same molecule?
Its value is “Slight, but not statistically significant, increases in the pain threshold”.

And the “withdrawal threshold, nerve-injured paw” value ([8]; 10 mg/kg i.v., 15 minutes post dose)?
The value was 5.98 ± 2.25 g.

And the “withdrawal threshold, nerve-injured paw” value ([8]; 10 mg/kg i.v., 60 minutes post dose)?
Its value is 7.26 ± 2.19 g.

And the “responses of the uninjured (contralateral) hind paw” value ([8]; 5, 10, and 20 mg/kg, any of the time points tested)?
Its value is “No marked changes”.

What about the “withdrawal threshold, nerve-injured paw” value ([8]; doses of 5 and 20 mg/kg) of the same molecule?
Its value is “small but distinct increases in withdrawal threshold”.

What about the “group mean withdrawal threshold, nerve-injured paw” value ([8]; high dose (20 mg/kg i.v.)) of the same molecule?
The value was 2.08 ± 1.21 g.

And the “group mean withdrawal threshold, nerve-injured paw” value ([8]; low dose group (5 mg/kg i.v.))?
The value was 5.04 ± 3.09 g.

And the “withdrawal threshold in the nerve injured hind paw to mechanical allodynia” value ([8]; male rats, 5, 10, and 20 mg/kg)?
The value was “marked increase in the withdrawal threshold”.

What about the contralateral effects [9] of the same molecule?
Its contralateral effects is “no evidence of any contralateral effects”.

And the “sensitivity of the nerve-injured paw to mechanical stimuli (Von Frey filaments)” value ([9]; free-base, approximately 15 and 60 min post dose)?
The value was “statistically significant reduction in the sensitivity”.

What about the “analgesia in the late phase (30-50 min) of the formalin test” value [10] of the same molecule?
The value was “increased analgesia 8 days after administration”.

What does the source list for `NCC1(CC(=O)O)CCCCC1` [gabapentin, reference compound]?
antinociceptive efficacy (percentage analgesia, late phase response) [1]: dose-dependent efficacy; ataxia ([1]; subcutaneous, doses of the formalin study (data not shown)): ataxic at the highest dose
